Legend:
Meth A fibrosarcoma = assay: Anti-tumor activity, subcutaneously transplanted Meth A fibrosarcoma in mice, oral administration; assay type: in vivo, CDF₁ mice; settings: tumors weighed on day 14
Description: (§1) The compound obtained in Examples 1, 4, 9 or 11 was uniformly suspended in 0.5% aqueous methylcellulose solution. The compound obtained in Example 14 was uniformly suspended in 0.5% aqueous methylcellulose solution containing 0.1% TWEEN 80.
(§2) For the compounds obtained in Examples 1, 4, 9 and 11, female CDF₁ mice of 7 weeks old were used. For the compound obtained in Example 14, female CDF₁ mice of 6 weeks old were used. Each group consisted of 5 or 6 animals.
As the tumor, Meth A fibrosarcoma was used.
(§3) To the right abdomen of each mouse, 2 x 10⁶ tumor cells were subcutaneously transplanted. On the next day (day 1), the mice were randomly grouped and the suspension was compulsively administered to the mice by using an oral sound for successive 7 days (day 1 - day 7).
On day 14, the tumors were removed and weighed. The tumor growth ratio (%) was calculated according to the following equation: Tumor Growth Ratio (%) = T/C x 100 [formula] wherein T means the average weight of tumor of the treated group and C means the average weight of tumor of the control group. The results about the compounds obtained in Examples 1, 4, 9 and 11 are shown in Table 2, and the results about the compound obtained in Example 14 are shown in Table 3. In Table 2, "HCFU" means 1-hexyl carbamoyl-5-fluorouracil known as "Carmofur".

[1] = Bodyweight change of the tumor-carrying mice in the anti-tumor activity test; assay type: in vivo, CDF₁ mice
Description: as §1, §2, §3

[2] = dose 100.0 mg/kg, Table 2 experiment, female CDF₁ mice

## C#CCO[C@H]1C[C@H](n2cc(C(F)(F)F)c(=O)[nH]c2=O)O[C@@H]1COC(=S)c1cccs1 [Example 11, 3'-O-propargyl-5'-O-(2-thiophenecarbothionyl)-α,α,α-trifluorothymidine]
Meth A fibrosarcoma; dose 13.8 mg/kg oral, day 1 - day 7, female CDF₁ mice 7 weeks old
  Tumor Weight Ratio (T/C:%): 27.6%
Meth A fibrosarcoma; dose 55.1 mg/kg oral, day 1 - day 7, female CDF₁ mice 7 weeks old
  Tumor Weight Ratio (T/C:%): 5.8%
[1]; dose 13.8 mg/kg oral, day 1 - day 7, female CDF₁ mice 7 weeks old, 0.5% methylcellulose suspension
  Bodyweight Change: -0.7 g
[1]; dose 55.1 mg/kg oral, day 1 - day 7, female CDF₁ mice 7 weeks old, 0.5% methylcellulose suspension
  Bodyweight Change: -4.4 g

## C#CCO[C@H]1C[C@H](n2cc(C(F)(F)F)c(=O)[nH]c2=O)O[C@@H]1COC(=S)c1ccccc1 [Example 14, 3'-O-propargyl-5'-O-thiobenzoyl-α,α,α-trifluorothymidine]
Meth A fibrosarcoma; dose 13.6 mg/kg oral, day 1 - day 7, female CDF₁ mice 6 weeks old
  Tumor Weight Ratio (T/C:%): 29.4%
Meth A fibrosarcoma; dose 54.4 mg/kg oral, day 1 - day 7, female CDF₁ mice 6 weeks old
  Tumor Weight Ratio (T/C:%): 7.2%
[1]; dose 13.6 mg/kg oral, day 1 - day 7, female CDF₁ mice 6 weeks old, 0.5% methylcellulose containing 0.1% TWEEN 80
  Bodyweight Change: -0.5 g
[1]; dose 54.4 mg/kg oral, day 1 - day 7, female CDF₁ mice 6 weeks old, 0.5% methylcellulose containing 0.1% TWEEN 80
  Bodyweight Change: -3.7 g

## CCCCCCNC(=O)n1cc(F)c(=O)[nH]c1=O [HCFU, 1-hexyl carbamoyl-5-fluorouracil, reference compound]
Meth A fibrosarcoma; [2]
  Tumor Weight Ratio (T/C:%): 18.0%
[1]; [2]
  Bodyweight Change: -2.0 g

## C#CCO[C@H]1C[C@H](n2cc(C(F)(F)F)c(=O)[nH]c2=O)O[C@@H]1COC(=S)c1ccc(Cl)cc1 [Example 4, 3'-O-propargyl-5'-O-(4-chlorothiobenzoyl)-α,α,α-trifluorothymidine]
Meth A fibrosarcoma; dose 14.6 mg/kg oral, day 1 - day 7, female CDF₁ mice 7 weeks old
  Tumor Weight Ratio (T/C:%): 23.3%
Meth A fibrosarcoma; dose 58.5 mg/kg oral, day 1 - day 7, female CDF₁ mice 7 weeks old
  Tumor Weight Ratio (T/C:%): 4.8%
[1]; dose 14.6 mg/kg oral, day 1 - day 7, female CDF₁ mice 7 weeks old, 0.5% methylcellulose suspension
  Bodyweight Change: -0.8 g
[1]; dose 58.5 mg/kg oral, day 1 - day 7, female CDF₁ mice 7 weeks old, 0.5% methylcellulose suspension
  Bodyweight Change: -3.8 g

## C#CCO[C@H]1C[C@H](n2cc(C(F)(F)F)c(=O)[nH]c2=O)O[C@@H]1COC(=S)c1ccc(SC)cc1 [Example 9, 3'-O-propargyl-5'-O-(4-thiomethylthiobenzoyl)-α,α,α-trifluorothymidine]
Meth A fibrosarcoma; dose 15.0 mg/kg oral, day 1 - day 7, female CDF₁ mice 7 weeks old
  Tumor Weight Ratio (T/C:%): 22.5%
Meth A fibrosarcoma; dose 60.0 mg/kg oral, day 1 - day 7, female CDF₁ mice 7 weeks old
  Tumor Weight Ratio (T/C:%): 5.1%
[1]; dose 15.0 mg/kg oral, day 1 - day 7, female CDF₁ mice 7 weeks old, 0.5% methylcellulose suspension
  Bodyweight Change: -0.9 g
[1]; dose 60.0 mg/kg oral, day 1 - day 7, female CDF₁ mice 7 weeks old, 0.5% methylcellulose suspension
  Bodyweight Change: -4.3 g

## C#CCO[C@H]1C[C@H](n2cc(C(F)(F)F)c(=O)[nH]c2=O)O[C@@H]1COC(=S)c1ccc(C)cc1 [Example 1, 3'-O-propargyl-5'-O-(4-methyl-thiobenzoyl)-α,α,α-trifluorothymidine]
Meth A fibrosarcoma; dose 14.0 mg/kg oral, day 1 - day 7, female CDF₁ mice 7 weeks old
  Tumor Weight Ratio (T/C:%): 28.4%
Meth A fibrosarcoma; dose 56.1 mg/kg oral, day 1 - day 7, female CDF₁ mice 7 weeks old
  Tumor Weight Ratio (T/C:%): 7.1%
[1]; dose 14.0 mg/kg oral, day 1 - day 7, female CDF₁ mice 7 weeks old, 0.5% methylcellulose suspension
  Bodyweight Change: -0.4 g
[1]; dose 56.1 mg/kg oral, day 1 - day 7, female CDF₁ mice 7 weeks old, 0.5% methylcellulose suspension
  Bodyweight Change: -3.2 g

— patent publication EP0601520A1, “Trifluorothymidine derivatives, process for producing the same and anti-cancer agent containing the same” (MITSUI TOATSU CHEMICALS, Inc., priority 1992, dated 1994)
